Results published in PubChem BioAssay (NCI).
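Briefly, cells in 96-well plates were exposed to five compound concentrations for 48 h, and endpoints were estimated by linear interpolation. TGI: total growth inhibition.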

What was measured:
Assay in all cases: NCI-60 cell line screen, 48 h
[1] = tested on: ACHN renal
[2] = tested on: HCC-2998 colon
[3] = tested on: HCT-116 colon
[4] = tested on: HOP-92 NSCLC
[5] = tested on: NCI-H460 lung
[6] = tested on: OVCAR-5 ovarian
[7] = tested on: OVCAR-8 ovarian
[8] = tested on: RXF 393 renal
[9] = tested on: SF-539 CNS
[10] = tested on: UO-31 renal

## COC(=O)C1=C(C(=O)OC)SC(=C2SCSC3=C2SC(C(=O)OC)=C(C(=O)OC)C32SC3=C(CCCC3)S2)S1
[1]
  TGI: > 100 µM
[2]
  TGI: > 100 µM
[3]
  TGI: > 100 µM
[4]
  TGI: > 100 µM
[5]
  TGI: > 100 µM
[6]
  TGI: > 100 µM
[7]
  TGI: > 100 µM
[8]
  TGI: 70 µM
[9]
  TGI: > 100 µM
[10]
  TGI: > 100 µM

## C/C(=C\CBr)CCC(Br)C(C)(C)Br (stereo not given)
[1]
  TGI: > 100 µM
[2]
  TGI: > 100 µM
[3]
  TGI: > 100 µM
[4]
  TGI: > 100 µM
[5]
  TGI: > 100 µM
[6]
  TGI: > 100 µM
[7]
  TGI: > 100 µM
[8]
  TGI: > 100 µM
[9]
  TGI: > 100 µM
[10]
  TGI: > 100 µM

## CC(=O)/C=C/C1=C(C)CCCC1(C)CC(C)C (stereo not given)
[1]
  TGI: 47.9 µM
[2]
  TGI: 35.7 µM
[3]
  TGI: 77.8 µM
[4]
  TGI: 37.7 µM
[5]
  TGI: > 100 µM
[6]
  TGI: > 100 µM
[7]
  TGI: > 100 µM
[8]
  TGI: 28.4 µM
[9]
  TGI: > 100 µM
[10]
  TGI: > 100 µM

## Cn1c(=O)c2c(nc3n2CC(C(=O)O)N3)n(C)c1=O (stereo not given)
[1]
  TGI: > 100 µM
[2]
  TGI: > 100 µM
[3]
  TGI: > 100 µM
[4]
  TGI: > 100 µM
[5]
  TGI: > 100 µM
[6]
  TGI: > 100 µM
[7]
  TGI: > 100 µM
[8]
  TGI: > 100 µM
[9]
  TGI: > 100 µM
[10]
  TGI: > 100 µM

## CCOC(=O)N1CCN(Cc2cc(=O)n3ccc(C)cc3n2)CC1
[1]
  TGI: > 100 µM
[2]
  TGI: > 100 µM
[3]
  TGI: > 100 µM
[4]
  TGI: > 100 µM
[5]
  TGI: > 100 µM
[6]
  TGI: > 100 µM
[7]
  TGI: > 100 µM
[8]
  TGI: > 100 µM
[9]
  TGI: > 100 µM
[10]
  TGI: > 100 µM

## C=C1CCN2CC[C@@H](OC(=O)/C(C)=C\C)[C@@H]12
[1]
  TGI: > 100 µM
[2]
  TGI: > 100 µM
[3]
  TGI: > 100 µM
[4]
  TGI: > 100 µM
[5]
  TGI: > 100 µM
[6]
  TGI: > 100 µM
[7]
  TGI: > 100 µM
[8]
  TGI: > 100 µM
[9]
  TGI: > 100 µM
[10]
  TGI: > 100 µM

## C[C@]12CCC3C4=C(CCC3C1CCC2=O)C(=O)[C@H]1O[C@H]1C4=O (stereo not given in full)
[1]
  TGI: 6.77 µM
[2]
  TGI: 3.3 µM
[3]
  TGI: 2.16 µM
[4]
  TGI: 16.8 µM
[5]
  TGI: 23.9 µM
[6]
  TGI: 10.4 µM
[7]
  TGI: 5.59 µM
[8]
  TGI: 3.18 µM
[9]
  TGI: 5.38 µM
[10]
  TGI: 5.1 µM

## Cc1ccc(NC(=O)c2ccc(OP(=O)(O)Nc3ccc(C)cc3)cc2)cc1
[1]
  TGI: > 100 µM
[2]
  TGI: > 100 µM
[3]
  TGI: > 100 µM
[4]
  TGI: > 100 µM
[5]
  TGI: > 100 µM
[6]
  TGI: > 100 µM
[7]
  TGI: > 100 µM
[8]
  TGI: > 100 µM
[9]
  TGI: > 100 µM
[10]
  TGI: > 100 µM

## O=C(/C=C/c1ccccc1)C[C@@H](O)C[C@@H]1CC=CC(=O)O1
[1]
  TGI: 30.5 µM
[2]
  TGI: 15.7 µM
[3]
  TGI: 6.38 µM
[4]
  TGI: 16 µM
[5]
  TGI: 39.5 µM
[6]
  TGI: 36.4 µM
[7]
  TGI: 18.9 µM
[8]
  TGI: > 23 µM
[9]
  TGI: 14.9 µM
[10]
  TGI: 28.9 µM

## Nc1c(-c2ccc(Cl)c(Cl)c2)c2ccc([N+](=O)[O-])cc2c(=O)n1-c1nc2ccccc2s1
[1]
  TGI: 20.6 µM
[2]
  TGI: 92.6 µM
[3]
  TGI: 12.9 µM
[4]
  TGI: 2.81 µM
[5]
  TGI: > 100 µM
[6]
  TGI: > 74.2 µM
[7]
  TGI: 17.9 µM
[8]
  TGI: 16.8 µM
[9]
  TGI: 16.3 µM
[10]
  TGI: 18.1 µM

## CCCCOC(=O)Nc1ccc(S(=O)(=O)Nc2ccccc2Cl)cc1
[1]
  TGI: 65.8 µM
[2]
  TGI: 27.5 µM
[3]
  TGI: 41.6 µM
[4]
  TGI: 30 µM
[5]
  TGI: 40.1 µM
[6]
  TGI: 55.4 µM
[7]
  TGI: 40 µM
[8]
  TGI: 55.9 µM
[9]
  TGI: 32.7 µM
[10]
  TGI: 80 µM

## Cc1cc(C)nc(NS(=O)(=O)c2ccc(NC(=O)c3ccc4nc5ccccc5c(Nc5ccc(S(N)(=O)=O)cc5)c4c3)cc2)n1
[1]
  TGI: > 100 µM
[2]
  TGI: > 100 µM
[3]
  TGI: > 100 µM
[4]
  TGI: > 100 µM
[5]
  TGI: > 100 µM
[6]
  TGI: > 100 µM
[7]
  TGI: > 100 µM
[8]
  TGI: > 100 µM
[9]
  TGI: > 100 µM
[10]
  TGI: > 100 µM

## COC(=O)c1c(C)nc2c1cc(O)c1[nH]c(C)c(C)nc12
[1]
  TGI: > 100 µM
[2]
  TGI: > 100 µM
[3]
  TGI: > 100 µM
[4]
  TGI: > 100 µM
[5]
  TGI: > 100 µM
[6]
  TGI: > 100 µM
[7]
  TGI: > 100 µM
[8]
  TGI: > 100 µM
[9]
  TGI: > 100 µM
[10]
  TGI: > 100 µM

## O=S(=O)(c1ccccc1)c1cccc2c1NCCC2
[1]
  TGI: > 100 µM
[2]
  TGI: > 100 µM
[3]
  TGI: > 100 µM
[4]
  TGI: > 100 µM
[5]
  TGI: > 100 µM
[6]
  TGI: > 100 µM
[7]
  TGI: > 100 µM
[8]
  TGI: 90.1 µM
[9]
  TGI: > 100 µM
[10]
  TGI: > 100 µM

## [N-]=[N+]=NC(c1ccccc1)(c1ccccc1)c1ccccc1
[1]
  TGI: 29.1 µM
[2]
  TGI: 30.5 µM
[3]
  TGI: 30.2 µM
[4]
  TGI: 32.3 µM
[5]
  TGI: 33 µM
[6]
  TGI: 30.1 µM
[7]
  TGI: 35.1 µM
[8]
  TGI: 32.9 µM
[9]
  TGI: 31 µM
[10]
  TGI: 30 µM

## Cc1cc(-c2nc3ccc(F)cc3s2)ccc1NC(=O)[C@H](C)N
[1]
  TGI: 22.9 µM
[2]
  TGI: 4.5 µM
[3]
  TGI: 11.4 µM
[4]
  TGI: 24.7 µM
[5]
  TGI: 6.09 µM
[6]
  TGI: 21.7 µM
[7]
  TGI: 27.3 µM
[8]
  TGI: 21.7 µM
[9]
  TGI: 14.9 µM
[10]
  TGI: 14 µM

## NS(=O)(=O)c1nnc(NC(=O)Nc2ccc(Cl)c(Cl)c2)s1
[1]
  TGI: > 100 µM
[2]
  TGI: 34.8 µM
[3]
  TGI: 42.4 µM
[4]
  TGI: 42.3 µM
[5]
  TGI: 55.3 µM
[6]
  TGI: 75 µM
[7]
  TGI: 49.9 µM
[8]
  TGI: 35.3 µM
[9]
  TGI: 34.1 µM
[10]
  TGI: 85.3 µM
